Each structure is given as a SMILES string. pIC50: −log10 of the molar value. Bounds are passed on as bounds.

Some targets named below: PIK3CG (human) (UniProt P48736); PIK3CB (Human) (UniProt P42338); PIK3CD (Human) (UniProt O00329); PIK3CA (human) (UniProt P42336).
Assay in all cases: Enzyme Assay

Sequence of PIK3CD (Human) (O00329 whole entry, looked up): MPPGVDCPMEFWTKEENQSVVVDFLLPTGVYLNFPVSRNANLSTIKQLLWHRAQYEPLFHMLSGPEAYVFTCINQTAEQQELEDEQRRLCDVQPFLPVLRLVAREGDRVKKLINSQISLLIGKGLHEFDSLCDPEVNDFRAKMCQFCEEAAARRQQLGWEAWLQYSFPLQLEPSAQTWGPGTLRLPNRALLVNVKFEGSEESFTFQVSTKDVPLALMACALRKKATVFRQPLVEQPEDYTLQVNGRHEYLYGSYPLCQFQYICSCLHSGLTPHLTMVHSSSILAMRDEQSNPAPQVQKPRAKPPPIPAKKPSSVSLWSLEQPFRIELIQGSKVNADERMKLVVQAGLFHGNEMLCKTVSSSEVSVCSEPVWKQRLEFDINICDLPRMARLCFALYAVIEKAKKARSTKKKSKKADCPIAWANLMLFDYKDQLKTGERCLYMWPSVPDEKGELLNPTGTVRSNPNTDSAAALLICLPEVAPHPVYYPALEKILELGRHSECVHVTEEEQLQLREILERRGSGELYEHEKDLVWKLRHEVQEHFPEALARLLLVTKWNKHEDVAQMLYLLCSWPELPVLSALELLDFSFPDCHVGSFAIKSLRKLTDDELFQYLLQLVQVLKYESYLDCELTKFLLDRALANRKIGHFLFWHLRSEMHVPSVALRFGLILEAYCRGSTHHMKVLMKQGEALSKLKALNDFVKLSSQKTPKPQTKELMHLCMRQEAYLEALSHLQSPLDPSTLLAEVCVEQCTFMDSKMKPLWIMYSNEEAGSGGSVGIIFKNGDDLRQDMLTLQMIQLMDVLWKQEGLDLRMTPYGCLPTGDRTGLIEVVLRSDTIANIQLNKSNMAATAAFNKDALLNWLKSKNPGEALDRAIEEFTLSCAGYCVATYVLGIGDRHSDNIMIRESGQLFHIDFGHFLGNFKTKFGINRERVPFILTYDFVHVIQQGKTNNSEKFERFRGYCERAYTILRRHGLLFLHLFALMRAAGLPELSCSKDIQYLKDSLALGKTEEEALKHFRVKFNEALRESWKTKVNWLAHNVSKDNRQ
Sequence of PIK3CG (human) (P48736 whole entry, looked up): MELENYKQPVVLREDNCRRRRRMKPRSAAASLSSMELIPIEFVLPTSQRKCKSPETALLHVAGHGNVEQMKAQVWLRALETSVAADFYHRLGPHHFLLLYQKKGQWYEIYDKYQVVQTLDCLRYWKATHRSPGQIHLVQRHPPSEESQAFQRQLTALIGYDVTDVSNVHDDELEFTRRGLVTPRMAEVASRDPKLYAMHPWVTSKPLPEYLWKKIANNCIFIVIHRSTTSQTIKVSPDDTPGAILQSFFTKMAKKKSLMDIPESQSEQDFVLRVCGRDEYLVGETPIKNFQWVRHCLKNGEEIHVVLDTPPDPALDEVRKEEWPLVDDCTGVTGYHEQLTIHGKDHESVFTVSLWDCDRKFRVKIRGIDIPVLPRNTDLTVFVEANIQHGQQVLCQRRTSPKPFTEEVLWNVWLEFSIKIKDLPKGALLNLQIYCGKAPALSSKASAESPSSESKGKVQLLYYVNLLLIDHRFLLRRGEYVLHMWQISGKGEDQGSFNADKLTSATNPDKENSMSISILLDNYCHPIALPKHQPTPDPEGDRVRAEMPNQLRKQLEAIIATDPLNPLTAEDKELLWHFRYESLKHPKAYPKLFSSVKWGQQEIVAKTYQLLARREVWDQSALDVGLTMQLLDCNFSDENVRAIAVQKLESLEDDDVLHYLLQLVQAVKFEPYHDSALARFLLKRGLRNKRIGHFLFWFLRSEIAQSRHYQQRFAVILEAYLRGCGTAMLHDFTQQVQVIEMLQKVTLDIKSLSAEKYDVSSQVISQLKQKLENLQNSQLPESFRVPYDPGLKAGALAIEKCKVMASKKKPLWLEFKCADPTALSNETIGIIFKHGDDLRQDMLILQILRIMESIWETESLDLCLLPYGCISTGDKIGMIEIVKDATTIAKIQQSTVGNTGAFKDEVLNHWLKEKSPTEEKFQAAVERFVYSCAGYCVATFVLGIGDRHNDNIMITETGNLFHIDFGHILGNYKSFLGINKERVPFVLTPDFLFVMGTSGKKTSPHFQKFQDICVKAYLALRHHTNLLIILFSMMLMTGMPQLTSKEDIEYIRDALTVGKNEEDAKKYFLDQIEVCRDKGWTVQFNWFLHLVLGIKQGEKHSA
Sequence of PIK3CA (human) (P42336 whole entry, looked up): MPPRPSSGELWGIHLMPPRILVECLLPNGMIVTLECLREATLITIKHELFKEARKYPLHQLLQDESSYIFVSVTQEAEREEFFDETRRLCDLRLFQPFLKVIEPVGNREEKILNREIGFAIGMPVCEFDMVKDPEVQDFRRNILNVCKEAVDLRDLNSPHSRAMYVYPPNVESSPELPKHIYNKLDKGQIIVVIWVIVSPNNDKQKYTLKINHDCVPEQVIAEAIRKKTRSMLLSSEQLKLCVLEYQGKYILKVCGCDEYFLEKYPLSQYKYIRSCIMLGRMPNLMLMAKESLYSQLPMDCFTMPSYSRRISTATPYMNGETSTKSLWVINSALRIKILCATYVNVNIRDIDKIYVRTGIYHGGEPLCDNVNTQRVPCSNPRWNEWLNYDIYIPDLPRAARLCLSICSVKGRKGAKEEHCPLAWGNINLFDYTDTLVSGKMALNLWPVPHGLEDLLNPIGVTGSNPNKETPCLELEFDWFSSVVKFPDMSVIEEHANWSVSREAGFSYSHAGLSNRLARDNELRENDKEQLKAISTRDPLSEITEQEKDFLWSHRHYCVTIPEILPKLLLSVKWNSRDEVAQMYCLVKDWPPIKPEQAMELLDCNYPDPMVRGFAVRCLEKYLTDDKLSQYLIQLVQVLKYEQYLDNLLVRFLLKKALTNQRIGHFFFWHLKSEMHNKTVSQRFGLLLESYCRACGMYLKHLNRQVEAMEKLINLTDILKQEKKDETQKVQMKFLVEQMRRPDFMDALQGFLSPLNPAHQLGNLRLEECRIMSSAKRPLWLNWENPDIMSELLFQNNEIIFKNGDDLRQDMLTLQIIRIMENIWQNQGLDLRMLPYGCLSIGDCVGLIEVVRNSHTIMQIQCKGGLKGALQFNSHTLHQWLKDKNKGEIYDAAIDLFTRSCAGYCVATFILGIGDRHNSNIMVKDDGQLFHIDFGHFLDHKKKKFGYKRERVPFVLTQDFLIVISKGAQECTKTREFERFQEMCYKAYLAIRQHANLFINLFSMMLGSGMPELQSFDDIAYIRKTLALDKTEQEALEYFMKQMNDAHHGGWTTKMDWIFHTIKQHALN
Sequence of PIK3CB (Human) (P42338 whole entry, looked up): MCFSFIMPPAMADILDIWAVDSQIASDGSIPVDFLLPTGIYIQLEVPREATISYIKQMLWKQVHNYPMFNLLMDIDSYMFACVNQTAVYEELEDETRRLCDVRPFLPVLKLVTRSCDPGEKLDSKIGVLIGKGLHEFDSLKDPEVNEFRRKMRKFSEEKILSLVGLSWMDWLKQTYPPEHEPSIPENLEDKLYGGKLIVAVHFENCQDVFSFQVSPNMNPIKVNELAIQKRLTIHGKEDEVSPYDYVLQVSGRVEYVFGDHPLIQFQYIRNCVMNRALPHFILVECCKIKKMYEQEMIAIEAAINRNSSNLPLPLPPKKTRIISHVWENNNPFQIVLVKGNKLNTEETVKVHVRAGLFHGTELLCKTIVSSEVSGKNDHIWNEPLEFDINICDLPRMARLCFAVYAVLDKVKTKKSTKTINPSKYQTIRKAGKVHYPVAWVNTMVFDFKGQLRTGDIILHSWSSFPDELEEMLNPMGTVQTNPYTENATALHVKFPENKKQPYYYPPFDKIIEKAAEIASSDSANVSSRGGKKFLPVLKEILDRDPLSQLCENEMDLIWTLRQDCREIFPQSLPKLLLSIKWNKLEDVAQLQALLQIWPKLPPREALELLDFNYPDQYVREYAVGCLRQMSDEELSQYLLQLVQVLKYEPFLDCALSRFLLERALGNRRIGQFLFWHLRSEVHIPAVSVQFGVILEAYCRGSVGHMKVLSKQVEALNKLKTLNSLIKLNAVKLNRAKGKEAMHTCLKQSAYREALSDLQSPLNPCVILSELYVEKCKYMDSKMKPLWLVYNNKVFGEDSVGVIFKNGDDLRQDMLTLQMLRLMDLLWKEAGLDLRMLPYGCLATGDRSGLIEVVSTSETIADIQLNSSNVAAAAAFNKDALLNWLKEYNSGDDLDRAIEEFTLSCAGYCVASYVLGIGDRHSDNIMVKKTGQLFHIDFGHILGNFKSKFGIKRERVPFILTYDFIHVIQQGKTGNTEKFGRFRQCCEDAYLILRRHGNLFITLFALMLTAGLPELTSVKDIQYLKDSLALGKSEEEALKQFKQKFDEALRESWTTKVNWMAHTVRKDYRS

What is called pIC50 is the IC50 on a negative log10 scale, so that one unit is a factor of ten. `O=c1cc(N2CCOCC2)nc2n1CC[C@@H](C(F)(F)F)N2C[C@@H](O)c1ccccc1`: the negative logarithm of the IC50 (pIC50) against PIK3CG (human) was 7.82; against PIK3CB (Human) it was 7.80.
Consider `O=c1cc(N2CCOCC2)nc2n1CC[C@@H](C(F)(F)F)N2c1cc(F)cc(F)c1`, for which the values for the pIC50 against PIK3CD (Human), against PIK3CG (human) and against PIK3CB (Human) were 6.57, 5.45 and 6.47, respectively.
Turning to `O=c1cc(N2CCOCC2)nc2n1CC[C@@H](C(F)(F)F)N2Cc1ccc(Cl)s1`, the pIC50 at PIK3CD (Human) is 6.77; against PIK3CG (human), 5.14; at PIK3CB (Human) it was 6.66; at PIK3CA (human) it was 6.30.
With `O=c1cc(N2CCOCC2)nc2n1CCC1(CC1)N2C[C@@H](O)c1ccccc1`, the pIC50 was 6.22 against PIK3CD (Human), 5.53 at PIK3CG (human), 5.46 against PIK3CB (Human) and 6.03 on PIK3CA (human).
For the compound `O=c1cc(N2CC3CCC(C2)O3)nc2n1CC[C@@H](C(F)(F)F)N2Cc1ccc(Cl)s1`, the pIC50 was 5.42 on PIK3CD (Human) and 5.43 at PIK3CA (human).
`CC(C)OCCN1c2nc(N3CCOCC3)cc(=O)n2CCC1(C)C`: the pIC50 on PIK3CD (Human) was 5.38; on PIK3CG (human), less than 5.00; at PIK3CB (Human), less than 5.00; on PIK3CA (human), 5.13.
For `O=c1cc(N2CCOCC2)nc2n1CC[C@@H](C(F)(F)F)N2C[C@H](O)c1ccccc1`, the results for the pIC50 against PIK3CG (human) and at PIK3CB (Human) were less than 5.00 and 6.00, respectively.
Consider `CC1(C)CCn2c(nc(N3CCOCC3)cc2=O)N1C[C@@H](O)c1ccccc1`, for which the negative-log IC50 (pIC50) against PIK3CD (Human) was 5.93; against PIK3CG (human) it was 5.13; against PIK3CB (Human) it was 5.34; on PIK3CA (human), 5.72.
With `CC(C)OCCN1c2nc(N3CCOCC3)cc(=O)n2CC[C@H]1C(F)(F)F`, the pIC50 was 6.68 at PIK3CD (Human), 5.76 against PIK3CG (human) and 6.63 against PIK3CB (Human).
In the case of `O=c1cc(N2CCOCC2)nc2n1CC[C@@H](C(F)(F)F)N2Cc1ccccc1`, the pIC50 was 7.28 against PIK3CD (Human), 5.80 at PIK3CG (human), 7.00 on PIK3CB (Human) and 7.30 against PIK3CA (human).
Turning to `C[C@@H]1COCCN1c1cc(=O)n2c(n1)N(Cc1ccc(Cl)s1)[C@H](C(F)(F)F)CC2`, the values for the pIC50 on PIK3CD (Human) and against PIK3CA (human) were 5.89 and 5.54, respectively.
With `C[C@H]1COCCN1c1cc(=O)n2c(n1)N(Cc1ccc(Cl)s1)[C@H](C(F)(F)F)CC2`, the negative-log IC50 (pIC50) against PIK3CD (Human) was 6.44; on PIK3CG (human), 5.74; against PIK3CB (Human), 6.19; against PIK3CA (human), 5.99.
The corresponding values for `CC(C)OCCN1c2nc(N3CCOCC3)cc(=O)n2CC[C@@]1(C)C(F)(F)F` are 7.57, 6.20, 7.47 and 7.06.
Turning to `O=c1cc(N2CCOCC2)nc2n1CC[C@@H](C(F)(F)F)N2CCc1ccccc1`, the pIC50 on PIK3CD (Human) is 7.85; at PIK3CG (human), 6.97; against PIK3CB (Human), 7.44; against PIK3CA (human) it was 7.77.
Regarding `O=c1cc(N2CCOCC2)nc2n1CC[C@@H](C(F)(F)F)N2c1ccccc1`, the pIC50 against PIK3CD (Human) is 7.21; on PIK3CG (human) it was 5.72; against PIK3CB (Human), 7.03.
